Results taken from publication PMC5555576, “Selective small-chemical inhibitors of protein arginine methyltransferase 5 with anti-lung cancer activity” (PLoS ONE, 2017).
“And” between values parts separate entries of the source, which are not always exact repeats. Equal entries are not always repeated.

Experiments:
[1] = tested on: A549 lung tumor xenografts; assay: Orthotopic lung tumor xenograft model; type: in vivo, nude mice; conditions: 100 mg/kg oral gavage daily
Description: Six-week old nude mice were purchased from the National Cancer Institute and maintained in a barred animal facility. Cell injection into the mouse lung was performed as described previously. Mice were treated with vehicle [0.1 ml, 0.5% (w/v) carboxymethycellulose plus 0.5% Tween 80] by oral gavage or the compound dissolved in the vehicle (0.1 ml, 100 mg/kg) for 21 days. The lungs of the mice were then removed, fixed with formaldehyde and embedded in paraffin. Paraffin-embedded lung tissue sections (4 μm) were stained with H&E and evaluated for tumors. The tumor areas in lungs were quantified using the ImageJ software program (NIH).
We used the orthotopic lung tumor model to determine effects of the compound C9a on growth of lung cancer xenografts. A549 cells were injected into the lung of nude mouse as previously reported by us. Mice were randomized and divided into two groups: (a) control mice (n = 5): administration of the vehicle [0.5% (w/v) carboxymethycellulose plus 0.5% Tween 80] by oral gavage daily; (b) treated mice (n = 10): administration of the compound C9a in the vehicle at the dosage of 100 mg/kg by oral gavage daily. […]
Fig 9 The compound C9a inhibited growth of lung tumor xenografts in nude mice. […] Histones were isolated from tumors and analyzed by SDS-PAGE stained with Commassie blue R250 (bottom) or by Western blot with anti-symmetric dimethyl arginine antibody (SYM10) (top).

[2] = tested on: histone H2A arginine methylation in lung tumor xenografts; assay: Western blot of histone symmetric dimethylarginine in lung tumors; type: in vivo, nude mice; conditions: 100 mg/kg oral, 21 days, SYM10 antibody
Description: Histones were purified as reported previously. Briefly, cells (1–5 x 10^6) or lung tumors (10–100 mg) were lysated using a glass dounce in 1 ml of 1x Passive Lysis Buffer (Promega) and nuclear pellets were collected by centrifugation at 3,000 rpm for 5 min at 4 °C. The supernatant was discard and the pellets were washed with 1 ml of 1x Passive Lysis Buffer. Nuclear pellets were resuspended in 0.4 ml of the buffer (10 mM Trs-HCl, pH7.9, 0.2 mM EDTA, 1 mM DTT, 20% glycerol, 0.42 M KCl) and incubate for 30 min on ice, and centrifuged at 12,000 rpm for 10 min at 4 °C. The supernatant (histones extract) was transferred to a new tube and histones were precipitated by 20% trichloroacetic acid.
Protein extracts or histones (20 μg) were subjected to 10% or 15% sodium dodecyl sulfate-polyacrylamide gel electrophoresis, respectively then transferred to Immobilon-P membranes (Millipore). […] Immunoreactive proteins were detected using an enhanced chemiluminescence detection system (GE Healthcare) per the manufacturer’s instructions. Protein concentrations were determined using the Bradford protein assay reagent (Bio-Rad).
Fig 9 The compound C9a inhibited growth of lung tumor xenografts in nude mice. […] Histones were isolated from tumors and analyzed by SDS-PAGE stained with Commassie blue R250 (bottom) or by Western blot with anti-symmetric dimethyl arginine antibody (SYM10) (top). […]

[3] = tested on: PRMT5-target genes in A549 cells; assay: Real-time PCR of PRMT5-regulated genes; type: cell-based; conditions: 50 μM, 24 hrs
Description: We identified a set of genes whose expression was altered by silencing PRMT5 expression in lung cancer A549 cells. A549 cells were treated with C9a and EPZ015666 and expression of 6 identified PRMT5-regulated genes was analyzed. […] The future study would use genome-wide approach to determine genes whose expression is affected by PRMT5 inhibitors.
Supplementary file pone.0181601.s005.tif: S5 Fig PRMT5 inhibitors selectively affect PRMT5-target genes in lung cancer cells. RNAs were isolated from cells cultured in the presence of DMSO, EPZ015666 (Sigma-Aldrich) (50 μM), or C9a (50 μM) for 24 hrs and submitted to RT-RCR analysis of gene expression in cancer cell lines. Relative mRNA levels = mRNA in cells treated with PRMT5-inhibtor/mRNA in DMSo-treated cells. (TIF) Click here for additional data file.

PRMT5 = target: T1, PRMT5 (Homo sapiens, UniProt O14744); assay: Steady-state kinetic analysis of PRMT5 inhibition (time-dependent inhibition assay); type: biochemical
T1 construct: His6; made in house; host or cells: E. coli BL21(ED3) [sic]
Description: Different amounts of compound C2 or C5 were present in the final methylation reaction mixtures with 1.2 μg of PRMT5, 5 μM AdoMet, 2 μCi of H^3-AdoMet and various concentrations of SmD3. After a 10-, 20- or 30-min incubation at 30 °C or no incubation, the reaction mixtures were spread onto DE81 chromatography paper discs and the amounts of methylated products were quantified by liquid scintillation. Amounts (counts per minute [cpm]) of methylated products and incubation time (minutes) were plotted and reaction velocity (cpm per minute) was deduced.
To understand the mechanism of inhibition of identified compounds, we analyzed the kinetic pattern of inhibition using steady-state enzymatic measurements. The velocities of PRMT5 methylation of SmD3 were measured at several selected concentrations of compounds C2 and C5 over a range of SmD3 concentrations. Plotted in the double-reciprocal format with 1/velocity versus 1/[SmD3]
Fig 5 Steady-state kinetic analysis of PRMT5 inhibition by compounds C2 and C5. Double-reciprocal plot of reaction velocities (cpm per minute) versus concentrations of SmD3. Methylation reaction mixtures contained various concentrations of C2 (left) or C5 (right), various concentrations of SmD3, 1.2 μg of PRMT5 and 5 μM AdoMet. The mixtures were incubated for different times and the amounts of methylated products were quantified using DE81 paper and liquid scintillation. Reaction velocity was calculated as H^3 incorporation (cpm) into SmD3 per minute.

[4] = single replicate, vs control, actin-normalised

T1 sequence (O14744 whole entry): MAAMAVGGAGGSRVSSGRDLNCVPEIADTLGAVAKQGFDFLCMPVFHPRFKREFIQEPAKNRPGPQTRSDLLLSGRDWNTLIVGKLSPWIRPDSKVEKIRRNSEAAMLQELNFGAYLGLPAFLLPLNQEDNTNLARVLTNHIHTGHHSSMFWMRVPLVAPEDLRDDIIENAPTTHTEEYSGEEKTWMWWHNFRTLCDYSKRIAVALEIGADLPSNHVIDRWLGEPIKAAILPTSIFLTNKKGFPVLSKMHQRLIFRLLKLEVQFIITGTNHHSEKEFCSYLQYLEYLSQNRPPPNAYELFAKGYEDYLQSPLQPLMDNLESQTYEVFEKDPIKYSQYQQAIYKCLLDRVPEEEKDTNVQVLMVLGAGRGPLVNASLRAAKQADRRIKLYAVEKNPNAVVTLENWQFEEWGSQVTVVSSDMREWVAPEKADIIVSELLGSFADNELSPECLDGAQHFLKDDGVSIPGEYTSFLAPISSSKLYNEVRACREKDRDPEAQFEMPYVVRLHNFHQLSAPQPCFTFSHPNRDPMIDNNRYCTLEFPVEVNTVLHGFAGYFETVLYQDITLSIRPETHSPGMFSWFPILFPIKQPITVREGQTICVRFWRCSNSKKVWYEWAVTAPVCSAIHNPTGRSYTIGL

Row | SMILES | average tumor size (tumor area mean) in control mice relative to treated mice ([1]; 3 weeks) [fold] | effect on growth of mice (body weight) ([1]; 21 days) | arginine methylation in histone H2A in lung tumors [2] | EXPRESSION FOLD CHANGE avg BTG2 ([3]; average) | EXPRESSION FOLD CHANGE avg FGFR1 ([3]; average) | EXPRESSION FOLD CHANGE avg FOXO3 ([3]; average) | EXPRESSION FOLD CHANGE avg GLIPR1 ([3]; average) | EXPRESSION FOLD CHANGE avg PTTG1 ([3]; average) | EXPRESSION FOLD CHANGE avg TIGAR ([3]; average) | EXPRESSION FOLD CHANGE BTG2 [3, 4] | EXPRESSION FOLD CHANGE FGFR1 [3, 4] | EXPRESSION FOLD CHANGE FOXO3 [3, 4] | EXPRESSION FOLD CHANGE GLIPR1 [3, 4] | EXPRESSION FOLD CHANGE PTTG1 [3, 4] | EXPRESSION FOLD CHANGE TIGAR [3, 4] | mode of inhibition with regard to SAM (PRMT5) | mode of inhibition with regard to the SmD3 substrate (PRMT5; double-reciprocal plot)
1 | Nc1cccc(Nc2ncnc3c2cnn3Cc2ccccc2)c1 [Compound C9a] | 7.2 | retarded growth of mice | significantly inhibited | 1.857 | 0.9076 | 1.441 | 6.032 | 1.0371 | 1.502 | 1.889 and 1.826 and 0.7777 | 0.9289 and 0.7185 and 1.075 | 1.695 and 1.429 and 1.452 | 5.777 and 6.772 and 5.548 | 0.9706 and 1.104 and 1.215 | 1.627 and 1.032 and 1.378 |  | 
2 | CCn1c(=O)[nH]c2cc(C(=O)Nc3ccc(OC)cc3)ccc2c1=O [Compound C5] |  |  |  |  |  |  |  |  |  |  |  |  |  |  |  | not competitive inhibitors | competitive inhibitors
